Results reported in ChEMBL document CHEMBL5154804, “Species-Selective Targeting of Fungal Hsp90: Design, Synthesis, and Evaluation of Novel 4,5-Diarylisoxazole Derivatives for the Combination Treatment of Azole-Resistant Candidiasis” (J Med Chem, 2022).

Experiments:
Candida albicans [1] = test: Synergistic antifungal activity against fluconazole-resistant Candida albicans 311 assessed as inhibition of fungal growth in presence of fluconazole by checker board microdilution assay; assay type: functional; also: test concentration or dose not given here
Candida albicans [2] = test: Synergistic antifungal activity against fluconazole-resistant Candida albicans 100 assessed as inhibition of fungal growth in presence of fluconazole by checker board microdilution assay; assay type: functional
Candida albicans [3] = test: Synergistic antifungal activity against fluconazole-resistant Candida albicans 103 assessed as inhibition of fungal growth in presence of fluconazole by checker board microdilution assay; assay type: functional
Candida albicans [4] = test: Synergistic antifungal activity against fluconazole-resistant Candida albicans 904 assessed as inhibition of fungal growth in presence of fluconazole by checker board microdilution assay; assay type: functional; also: test concentration or dose not given here
Candida albicans [5] = test: Synergistic antifungal activity against fluconazole-resistant Candida albicans 901 assessed as inhibition of fungal growth in presence of fluconazole by checker board microdilution assay; assay type: functional
Candida albicans [6] = test: Synergistic antifungal activity against fluconazole-resistant Candida albicans 632 assessed as inhibition of fungal growth in presence of fluconazole by checker board microdilution assay; assay type: functional
[7] = Binding affinity to recombinant Candida albicans Hsp90 NBD expressed in Escherichia coli by SPR assay

Structure (SMILES): CCNC(=O)c1noc(-c2cc(-c3ccccc3Cl)c(O)cc2O)c1-c1ccc(CN2CCOCC2)cc1
- MIC80 (Candida albicans [1]): > 64 µg/mL
- MIC80 (Candida albicans [2]): > 64 µg/mL
- MIC80 (Candida albicans [3]): > 64 µg/mL
- MIC80 (Candida albicans [4]): > 64 µg/mL
- MIC80 (Candida albicans [5]): > 64 µg/mL
- MIC80 (Candida albicans [6]): > 64 µg/mL

Structure (SMILES): CCNC(=O)c1noc(-c2cc(-c3ccc(C)cc3)c(O)cc2O)c1-c1ccc(CN2CCS(=O)(=O)CC2)cc1
- MIC80 (Candida albicans [1]): 16 µg/mL
- MIC80 (Candida albicans [2]): > 64 µg/mL
- MIC80 (Candida albicans [3]): > 64 µg/mL
- MIC80 (Candida albicans [4]): 32 µg/mL
- MIC80 (Candida albicans [5]): 64 µg/mL
- MIC80 (Candida albicans [6]): > 64 µg/mL

Structure (SMILES): C[C@@H]1C[C@H]2O[C@@H]2/C=C\C=C\C(=O)Cc2c(Cl)c(O)cc(O)c2C(=O)O1 [RADICICOL]
- MIC80 (Candida albicans [1]): 1 µg/mL
- MIC80 (Candida albicans [2]): 0.5 µg/mL
- MIC80 (Candida albicans [3]): 1 µg/mL
- MIC80 (Candida albicans [4]): 0.5 µg/mL
- MIC80 (Candida albicans [5]): 1 µg/mL
- MIC80 (Candida albicans [6]): 1 µg/mL
- Kd [7]: 2 nM

Structure (SMILES): Cc1ccc(-c2cc(-c3onc(C(=O)N4CCCCC4)c3-c3ccc(CN4CCOCC4)cc3)c(O)cc2O)cc1
- MIC80 (Candida albicans [1]): > 64 µg/mL
- MIC80 (Candida albicans [2]): > 64 µg/mL
- MIC80 (Candida albicans [3]): > 64 µg/mL
- MIC80 (Candida albicans [4]): > 64 µg/mL
- MIC80 (Candida albicans [5]): > 64 µg/mL
- MIC80 (Candida albicans [6]): > 64 µg/mL

Structure (SMILES): Cc1ccc(-c2cc(-c3onc(C(=O)N4CCC4)c3-c3ccc(CN4CCOCC4)cc3)c(O)cc2O)cc1
- MIC80 (Candida albicans [1]): > 64 µg/mL
- MIC80 (Candida albicans [2]): 8 µg/mL
- MIC80 (Candida albicans [3]): > 64 µg/mL
- MIC80 (Candida albicans [4]): 16 µg/mL
- MIC80 (Candida albicans [5]): 16 µg/mL
- MIC80 (Candida albicans [6]): > 64 µg/mL

Structure (SMILES): CCNC(=O)c1noc(-c2cc(-c3cccc(C(F)(F)F)c3)c(O)cc2O)c1-c1ccc(CN2CCOCC2)cc1
- MIC80 (Candida albicans [1]): > 64 µg/mL
- MIC80 (Candida albicans [2]): > 64 µg/mL
- MIC80 (Candida albicans [3]): > 64 µg/mL
- MIC80 (Candida albicans [4]): > 64 µg/mL
- MIC80 (Candida albicans [5]): > 64 µg/mL
- MIC80 (Candida albicans [6]): > 64 µg/mL

Structure (SMILES): CCCNC(=O)c1noc(-c2cc(-c3ccc(C)cc3)c(O)cc2O)c1-c1ccc(CN2CCOCC2)cc1
- MIC80 (Candida albicans [1]): 64 µg/mL
- MIC80 (Candida albicans [2]): 16 µg/mL
- MIC80 (Candida albicans [3]): 32 µg/mL
- MIC80 (Candida albicans [4]): 4 µg/mL
- MIC80 (Candida albicans [5]): 4 µg/mL
- MIC80 (Candida albicans [6]): 32 µg/mL
